US8685974B2 (Bayer CropScience AG, priority 2009, dated 2014)
Marks after values point to notes of the source that are not given here.

Details: pH 2.3

Row | Molecule | log p | logP value of the minor isomer (in parenthesis in column Isomer ratio [d])
1 | CC(C)Cn1cc(-c2ccnc(Cl)c2)c(-c2ccc(Cl)s2)n1 [Example 70] | 4.85^[a] | 
2 | CCCNc1cc(-c2c[nH]nc2-c2ccc(Cl)s2)cc[n+]1[O-] [Example 71] | 1.9^[a] | 
3 | CCC(C)Nc1nccc(-c2cn(C(C)C)nc2-c2ccc(Cl)s2)n1 (stereo not drawn) [Example 182] | 3.15^[a] | 
4 | CC(C)n1cc(-c2ccnc(NCc3ccccc3)n2)c(-c2ccc(Cl)s2)n1 [Example 198] | 3.81^[a] | 
5 | CCC(C)n1cc(-c2ccnc(SC)n2)c(-c2ccc(Cl)s2)n1 (stereo not drawn) [Example 221] | 4.88^[a] | 
6 | Clc1nccc(-c2c[nH]nc2-c2ccc(Cl)s2)n1 [Example 81] | 2.64^[a] | 
7 | CCC(CC)n1ncc(-c2ccncc2)c1-c1ccc(Cl)s1 [Example 41] | 2.08^[a] | 
8 | C=CCNc1nccc(-c2cn(C(C)C)nc2-c2ccc(Cl)s2)n1 [Example 184] | 3^[a] | 
9 | CCC(C)n1cc(-c2ccnc(S(C)(=O)=O)n2)c(-c2ccc(Cl)s2)n1 (stereo not drawn) [Example 202] | 3.52^[a] | 
10 | CC(C)Cn1cc(-c2ccnc(NCc3ccccc3)n2)c(-c2ccc(Cl)s2)n1 [Example 93] | 4.31^[a] | 
11 | CC(C)Cn1ncc(-c2ccnc(NCc3ccccc3)n2)c1-c1ccc(Cl)s1 [Example 96] | 3.96^[a] | 
12 | CN(C)c1nccc(-c2c[nH]nc2-c2ccc(Cl)s2)n1 [Example 79] | 1.69^[a] | 
13 | C#CCNc1cc(-c2cnn(CC(C)C)c2-c2ccc(Cl)s2)cc[n+]1[O-] [Example 83] | 2.7^[a] | 
14 | CC(C)Cn1ncc(-c2cc[n+]([O-])c(NCc3ccccc3)c2)c1-c1ccc(Cl)s1 [Example 75] | 3.48^[a] | 
15 | CC(C)Cn1cc(-c2cc[n+]([O-])c(N)c2)c(-c2ccc(Cl)s2)n1 [Example 77] | 2.39^[a] | (2.21)
16 | COc1nccc(-c2c[nH]nc2-c2ccc(Cl)s2)n1 [Example 69] | 2.23^[a] | 

Same assay, conditions: pH 2.7

Row | Molecule | log p | logP value of the minor isomer (in parenthesis in column Isomer ratio [d]) | logP (pH2.7) | logP (pH2.7), minor isomer | logP value of the minor isomer | logP value of the minor isomer (between parenthesis, Isomer ratio column)
17 | CCOCCn1cc(-c2ccnc(NC(C)C)n2)c(-c2ccc(Cl)s2)n1 [Example 120] | 2.56^[b] | (2.33) |  |  |  | 
18 | CCOC(=O)n1cc(-c2ccncc2)c(-c2ccc(Cl)s2)n1 [Example 87] | 1.97^[b] |  |  |  |  | 
19 | Clc1ccc(-c2n[nH]c(C3CC3)c2-c2ccncc2)s1 [Example 67] | 1.36^[b] |  |  |  |  | 
20 | CC(C)=CCn1cc(-c2ccncc2)c(-c2cc3ccsc3s2)n1 [Example 331] | 1.69^[b] |  |  |  |  | 
21 | 4-[5-Bromo-3-(5-chloro-2-thienyl)-1-(4-methoxybenzyl)-1H-pyrazol-4-yl]pyridine and 4-[3-bromo-5-(5-chloro-2-thienyl)-1-(4-methoxybenzyl)-1H-pyrazol-4-yl]pyridine |  |  | 3.53 | 3.0 |  | 
22 | N-Butyl-5-[4-(pyridin-4-yl)-1H-pyrazol-3-yl]thiophene-2-carboxamide hydrochloride |  |  | 1.47 |  |  | 
23 | CC(C)Nc1nccc(-c2cn(C3CCCC3)nc2-c2ccc(Cl)s2)n1 [Example 154] | 3.61^[b] |  |  |  |  | 
24 | CC#Cc1c(-c2ccncc2)c(-c2ccc(Cl)s2)nn1Cc1ccc(OC)cc1 [4-[(3/5)-(5-chloro-2-thienyl)-1-(4-methoxybenzyl)-5-(prop-1-yn-1-yl)-1H-pyrazol-4-yl]pyridine] |  |  | 3.11 | 2.61 |  | 
25 | FC(F)Cn1cc(-c2ccncc2)c(-c2sccc2Cl)n1 [Example 127] | 1.14^[b] |  |  |  | (1.17) | 
26 | CCC(C)n1ncc(-c2ccncn2)c1-c1ccc(Cl)s1 (stereo not drawn) [Example 31] | 3.34^[b] |  |  |  |  | 
27 | Cn1cc(-c2ccnc(N=C(c3ccccc3)c3ccccc3)c2)c(-c2ccc(Cl)s2)n1 [Example 309] | 4.67^[b] |  |  |  |  | 
28 | CCn1cc(-c2ccnc(NC(C)C)n2)c(-c2ccc(Cl)s2)n1 [Example 141] | 2.39^[b] |  |  |  | (2.20) | 
29 | CC(C)n1cc(-c2ccncc2)c(-c2cccs2)n1 [4-[1-Isopropyl-(3/5)-(2-thienyl)-1H-pyrazol-4-yl]pyridine] |  |  | 1.27 | 1.33 |  | 
30 | CC(C)Cn1cc(-c2ccncc2)c(-c2cc(Cl)cs2)n1 [Example 152] | 1.87^[b] |  |  |  |  | 
31 | CC(n1ncc(-c2ccncn2)c1-c1ccc(Cl)s1)C(C)(C)C (stereo not drawn) [Example 33] | 4.46^[b] |  |  |  |  | 
32 | CC1(Cn2cc(-c3ccncc3)c(-c3cc4ccsc4s3)n2)CC1(Cl)Cl (stereo not drawn) [Example 326] | 2.62^[b] |  |  |  |  | (2.46)
33 | N#CCn1cc(-c2ccncc2)c(-c2cc3ccsc3s2)n1 [Example 336] | 1.48^[b] |  |  |  |  | 
34 | Clc1ccc(-c2nn(-c3ccccc3)cc2-c2ccncc2)s1 [Example 22] | 2.63^[b] |  |  |  |  | 
35 | CC(=O)Nc1cc(-c2cn(C(C)C)nc2-c2ccc(Cl)s2)ccn1 [N-{4-[(3/5)-(5-Chloro-2-thienyl)-1-isopropyl-1H-pyrazol-4-yl]pyridin-2-yl}acetamide] |  |  | 2.45 | 2.22 |  | 
36 | CC(C)Cn1ncc(-c2cc[n+]([O-])c(NCc3ccccc3)c2)c1-c1ccc(Cl)s1 [2-Benzylamino-4-[1-isobutyl-5-(5-chloro-2-thienyl)-1H-pyrazol-4-yl]pyridine N oxide] |  |  | 3.48 |  |  | 
37 | Cc1ccc(-c2[nH]ncc2-c2ccncc2)s1 [Example 35] | 0.77^[b] |  |  |  |  | 
38 | Fc1cccc(Cn2cc(-c3ccncc3)c(-c3cc4ccsc4s3)n2)c1F [Example 327] | 1.75^[b] |  |  |  |  | 
39 | C=CCn1cc(-c2ccncc2)c(-c2sccc2Cl)n1 [Example 136] | 1.22^[b] |  |  |  | (1.28) | 
40 | CC(C)n1cc(-c2ccncc2)c(-c2sccc2Cl)n1 [Example 158] | 1.38^[b] |  |  |  |  | 
41 | ClCCn1cc(-c2ccncc2)c(-c2sccc2Cl)n1 [Example 134] | 1.22^[b] |  |  |  | (1.29) | 
42 | C#CCNc1cc(-c2cnn(CC(C)C)c2-c2ccc(Cl)s2)cc[n+]1[O-] [2-Propargylamino-4-[1-isobutyl-5-(5-chloro-2-thienyl)-1H-pyrazol-4-yl]pyridine-N-oxyde] |  |  | 2.92 |  |  | 

Row | Molecule | log p | logP value of the minor isomer (in parenthesis in column Isomer ratio [d]) | logP (pH2.7) | logP (pH2.7), minor isomer | logP value of the minor isomer | logP value of the minor isomer (between parenthesis, Isomer ratio column)
43 | CC(C)(C)n1ncc(-c2ccncc2)c1-c1ccc(Cl)s1 [Example 10] | 1.95^[b] |  |  |  |  | 
44 | FC(F)(F)c1ccc(-c2c(-c3ccncc3)cnn2C2CCCCO2)s1 (stereo not drawn) [4-[1-(2-tetrahydropyrannyl)-5-(5-trifluoromethyl-2-thienyl)-1H-pyrazol-4-yl]pyridine] |  |  | 1.96 |  |  | 
45 | CC(C)Cn1ncc(-c2cc[n+]([O-])c(Cl)c2)c1-c1ccc(Cl)s1 [2-Chloro-4-[1-isobutyl-5-(5-chloro-2-thienyl)-1H-pyrazol-4-yl]pyridine-N-oxyde] |  |  | 3.06 |  |  | 
46 | Clc1ccc(-c2c(-c3ccncc3)cnn2C2CCCC2)s1 [Example 16] | 2.13^[b] |  |  |  |  | 
47 | CC(C)Nc1nccc(-c2cn(CCc3ccccc3)nc2-c2ccc(Cl)s2)n1 [Example 153] | 3.63^[b] |  |  |  |  | 
48 | CC(C)Nc1nccc(-c2cn(CCCl)nc2-c2ccc(Cl)s2)n1 [Example 119] | 2.63^[b] | (2.35) |  |  |  | 
49 | Clc1ccsc1-c1nn(CCc2ccccc2)cc1-c1ccncc1 [Example 128] | 1.88^[b] |  |  |  | (1.84) | 
50 | CCC(CC)n1cc(-c2ccnc(NC(C)C)n2)c(-c2ccc(Cl)s2)n1 [Example 116] | 3.57^[b] | (3.37) |  |  |  | 
51 | CCC(C)n1cc(-c2cc[n+]([O-])cc2)c(-c2ccc(Cl)s2)n1 (stereo not drawn) [4-[1-sec-butyl-3-(5-chloro-2-thienyl)-1H-pyrazol-4-yl]pyridine N oxide] |  |  | 2.5 |  |  | 
52 | C#CCn1cc(-c2ccnc(NC(C)C)n2)c(-c2ccc(Cl)s2)n1 [Example 117] | 2.52^[b] | (3.13) |  |  |  | 
53 | CC(=O)N(C(C)=O)c1cc(-c2cn(C)nc2-c2ccc(N(C(C)=O)C(C)=O)s2)ccn1 [Example 289] | 1.84^[b] |  |  |  |  | 
54 | CC(C)Nc1nccc(-c2cn(CC(F)(F)F)nc2-c2ccc(Cl)s2)n1 [Example 124] | 3.11^[b] |  |  |  |  | 
55 | CC(C)CC(C)n1ncc(-c2ccncn2)c1-c1ccc(Cl)s1 (stereo not drawn) [Example 28] | 4.29^[b] |  |  |  |  | 
56 | CC(C)Cn1cc(-c2ccnc(N)c2)c(-c2ccc(Cl)s2)n1 [2-Amino-4-[1-isobutyl-(3/5)-(5-chloro-2-thienyl)-1H-pyrazol-4-yl]pyridine] |  |  | 2.04 | 1.93 |  | 
57 | CC(C)NC(=O)n1cc(-c2ccncc2)c(-c2ccc(Cl)s2)n1 [Example 89] | 2.26^[b] |  |  |  |  | 
58 | CC(C)n1cc(-c2ccnc(N=C(c3ccccc3)c3ccccc3)c2)c(-c2ccc(Cl)s2)n1 [4-[(3/5)-(5-Chloro-2-thienyl)-1-isopropyl-1H-pyrazol-4-yl]-N-(diphenylmethylene)pyridin-2-amine] |  |  | 4.46 | 3.96 |  | 
59 | CC(C)CCn1cc(-c2ccncn2)c(-c2ccc(Cl)s2)n1 [Example 27] | 3.8^[b] |  |  |  |  | 
60 | C#CCNc1cc(-c2cn(CC(C)C)nc2-c2ccc(Cl)s2)cc[n+]1[O-] [2-Propargylamino-4-[1-isobutyl-3-(5-chloro-2-thienyl)-1H-pyrazol-4-yl]pyridine-N-oxyde] |  |  | 2.70 |  |  | 
61 | CCC(C)n1cc(-c2ccnc(C(=O)NC(C)C)c2)c(-c2ccc(Cl)s2)n1 (stereo not drawn) [Example 99] | 4.82^[b] |  |  |  |  | 
62 | N#Cc1[nH]nc(-c2ccc(Cl)s2)c1-c1ccncc1 [Example 85] | 1.53^[b] |  |  |  |  | 
63 | CCC(C)n1nc(-c2ccc(Cl)s2)c(-c2ccncc2)c1Br (stereo not drawn) [4-[5-Bromo-1-secbutyl-(3/5)-(5-chloro-2-thienyl)-1H-pyrazol-4-yl]pyridine] |  |  | 3.69 |  |  | 
64 | CC(C)Cn1ncc(-c2cc[n+]([O-])c(N)c2)c1-c1ccc(Cl)s1 [2-Amino-4-[1-isobutyl-5-(5-chloro-2-thienyl)-1H-pyrazol-4-yl]pyridine N oxide] |  |  | 2.21 |  |  | 
65 | CCn1cc(-c2ccncc2)c(-c2cc(Cl)cs2)n1 [Example 156] | 1.34^[b] |  |  |  |  | 
66 | CCn1cc(-c2ccnc(NS(=O)(=O)N(C)C)c2)c(-c2ccc(Cl)s2)n1 [Example 219] | 2.59^[b] |  |  |  |  | 
67 | CC(C)Cn1cc(-c2cc[n+]([O-])c(Cl)c2)c(-c2ccc(Cl)s2)n1 [2-Chloro-4-[1-isobutyl-3-(5-chloro-2-thienyl)-1H-pyrazol-4-yl]pyridine-N-oxyde] |  |  | 2.82 |  |  | 
